{"source": "patent US12528840B2", "about": "“Transcription active complex targeting cancer drug from viral protein sequence” (The Regents of the University of California, priority 2020, dated 2026)", "key": {"BC-1 cells": {"system": "BC-1 cells", "test": "SLAM-seq, active transcription of cellular genes", "assay_type": "cell-based", "conditions": "24 μM, 30 min then 4sU 1 hour, BC-1 (FIG. 9: BCBL-1 and BC1)", "procedure": "FIG. 9. Profiling Peptide targets with Thiol(SH)-linked alkylation for the metabolic sequencing of RNA (SLAM seq). Differences in active transcription in presence of peptide drug was examined. […] Total RNA-sequence performed 24 hours after drug incubation.\nThiol(SH)-linked alkylation for the metabolic sequencing of RNA (SLAM seq), an orthogonal-chemistry-based RNA sequencing technology detects 4-thiouridine (s4U) incorporation in RNA species at single-nucleotide resolution. Using SLAM-seq method, BC-1 cells were incubated with peptide drug and peptide with three amino acid substitute to alanine was used as a control peptide. Peptide drug was incubated in BC-1 cell culture (24 μM) and after 30 min drug incubation, 4sU (300 μM in final concentration) was added into culture media for 1 hour. Total RNA was isolated in the end of 1 hour 4sU incubation and alkylated RNA samples were subjected to SLAM-seq. Samples were duplicated and changed gene expression vs mock-treated cells (P<0.05) was marked in red. […] IGV viewer was used to visualize sequence reads at MYC region (Chr. 8). […] Log 2 fold changes and adjusted P-value of MYC down regulation in both BCBL-1 and BC-1 cells are depicted in underneath of panel."}, "CD19+ B cells": {"system": "CD19+ B cells", "test": "CD19+ B cell response to sCD40L, live/dead staining", "assay_type": "cell-based", "conditions": "32 μM, sCD40L 1 μg/ml, 2 days", "procedure": "CD19^+ B cells were isolated with magnetic beads from PBMC of a healthy donor (n=1). Cells were washed and cultured at 1×10^6/ml in a 96 well plate (200 μl/well in triplicates) without or with sCD40L (1 μg/ml) in the presence of MBK50 (16 or 32 μM) or mutant peptide (32 μM) for 2 days. Live cells were determined as shown in FIG. 3 left panel using live/dead-red staining (live cells are gated as red-staining negative population). […] The peptide drug targets actively replicating B-cells that is consistent with MBK50 targeting MYC."}, "human CD3 T cells": {"system": "human CD3 T cells", "test": "CD3 T cell proliferation after anti-CD3/28 stimulation, flow cytometry", "assay_type": "cell-based", "conditions": "32 μM, 24 hours after 16 hours anti-CD3/28", "procedure": "To evaluate the effect of the peptide on human CD3 T cells, CD3 T cells were enriched by magnetic beads (CD3 positive selection beads, Stemcell technology) from PBMC samples from 5 healthy donors and stimulated with anti-CD3/28 tetramer (Stemcell technology) in triplicates for 16 hours before treating with PBS, MBK50 (32 μM) and Mutant peptide (32 μM) for 24 hours. Activated proliferating IRF4^+Ki67^+ CD3 T cells (red square in FIG. 5) in the culture were analyzed by live/dead-red staining (Invitrogen) and intracellular staining with anti-Ki67-FITC (Biolegend) and anti-IRF4-APC (Biolegend) antibodies. A representative flow cytometry profiles are shown in FIG. 5(a) for gating live CD3 T cell population and FIG. 5(b) Ki67 vs IRF4 for the gated live CD3 T cells. For FIG. 5(c-e), the means of triplicate cultures in each experiment for live cells % (c, n=5), total CD3 T cell numbers (d, n=5), and % of Ki67^+ cells (e, n=3) are shown in the top panel. The bottom panel are normalized data to PBS control cultures. P values calculated with Prism using one-way ANOVA with paired comparison. p<0.05 statistically significant."}, "BCBL-1 PEL cells": {"system": "BCBL-1 PEL cells", "test": "Cytokines in ascites of BCBL-1 PEL xenograft mice (Olink inflammatory panel)", "assay_type": "in vivo", "procedure": "Also, the effect of peptide on cytokine production by BCBL-1 PEL cells in xenograft mouse model was studied. Acsite was collected from NRG mice baring BCBL-1 PELs, which were either treated with wild type MBK50 (Wt) peptide (n=3), control Mut peptide (n=3) or left untreated (n=3) for 20 days. The levels of cytokines in the ascites were measured by Olink technology using inflammatory panel that can detect 92 inflammatory proteins. Data was analyzed with Olink Insights Stat analysis software. […] Thus, inflammatory protein expression profile of Wt peptide is distinct from the profile of other groups. […] On the right panel in (FIG. 12c), 15 cytokine expression levels expressed in NPX units, Olink's arbitrary unit, on log 2 scale were compared between untreated, mutant peptide and Wt peptide-treated groups."}, "BCBL-1 PEL cell line": {"system": "BCBL-1 PEL cell line", "test": "PEL xenograft study in NRG mice", "source_text": "We mapped the responsible domain and molecular mechanisms with biochemical and genetic approaches (FIG. 1).\nBased on cell killing efficacies of the peptide in vitro, we select two peptides and examine the efficacies to inhibit tumor growth in xenograft models. We use a PEL cell xenograft models. […] Standardized PK/PD studies are completed in rat models at the UCD comprehensive cancer center PK/PD core facility.\nAmino acid sequence alignment identified homologous protein sequences in other gamma-herpesvirus protein sequence (The Top table in FIG. 8a, also shown in FIG. 2). Based on their alignment, “non-natural” protein sequences were generated by substituting specific amino acids (The peptides are: Wt d1-1, DS 3-1, DE 3-1, and Mut d1-1 (control peptide) from the top to the bottom in the Bottom Table in FIG. 8a). Those four peptides were used in MTT assays in FIG. 8b to examine the effects on cell growth of BCBL-1 […] effusion lymphoma (PEL) cell line. Also tested are three D-amino acid substitutions first two amino acids and c-terminal amino acid (ST d3-1), in comparison with one D-amino acid peptide (N-terminus) (Wt d3-1)."}}}
{"sequence": "LSSILQGLYQLDT [MBK50]", "values": [{"measurement": "cellular gene expression (active transcription)", "setting": "BC-1 cells; listed as Wt-peptide", "value": "inhibited multiple cellular gene expression"}, {"measurement": "cellular gene expression (active transcription)", "setting": "BC-1 cells; listed as peptide drug", "value": "strongly inhibited active transcription"}, {"measurement": "live cell %", "setting": "CD19+ B cells", "value": "reduced"}, {"measurement": "total cell numbers", "setting": "CD19+ B cells", "value": "increased"}, {"measurement": "effect on activated proliferating CD3 T cells", "setting": "human CD3 T cells", "value": "preferentially targets actively dividing cells"}, {"measurement": "decrease of CXCL10", "setting": "BCBL-1 PEL cells", "value": "~200", "unit": "fold"}, {"measurement": "decrease of VEGFA", "setting": "BCBL-1 PEL cells", "value": "~4", "unit": "fold"}, {"measurement": "expression change of the majority of the 15 cytokines", "setting": "BCBL-1 PEL cells", "value": "about 2 fold"}, {"measurement": "PC analysis of 92 inflammatory protein expression profiles", "setting": "BCBL-1 PEL cells; 20 days treatment", "value": "away from the cluster"}, {"measurement": "number of cytokines significantly up- or down-regulated among 92", "setting": "BCBL-1 PEL cells; p<0.05", "value": 15}, {"measurement": "efficacy to target PEL in xenograft", "setting": "BCBL-1 PEL cell line", "value": "demonstrated efficacies"}, {"measurement": "toxicity to the host mice", "setting": "BCBL-1 PEL cell line; xenograft studies", "value": "without any measurable toxicities"}]}
